Laboratory results: US11802259B2, “Process of reducing malodors on fabrics” (The Procter & Gamble Company, priority 2019, dated 2023)

Assay: Malodor Reduction Test Method (wash of body soil malodor test fabrics, SPME GC-MS of oxidation markers)
Conditions: antioxidant at 0.035 wt % in detergent
Protocol: The following method is used to test the malodor reduction benefits of a composition.
Fatty acids and malodor markers are added into 100 ml glass gar with Teflon-lined cap according to Table A and mixed well using a vortex.
Provided the specified amount of each material according to Table B into a 200 mL glass jar with Teflon lined cap. Artificial body soil (ABS) is commercially available by Accurate Product Development; 2028 Bohlke Blvd, Fairfield, Ohio 45014.
Sixteen malodor test fabrics per wash load are prepared by applying 300 μl of Body soil malodor composition described in Table B to de-sized 2×5 inch white polycotton 50/50 (PCW50/50) swatches. 48 grams of liquid detergent to be tested (see, e.g., Example 1, Table 1, below) is added to Duet 9200 washing appliance set to Normal cycle; 77° F. wash cycle followed by a 60° F. rinse cycle. […]
The malodor reduction using ABS/Squalene malodor sensors are quantitatively determined by Gas Chromatography Mass Spectroscopy using an Agilent gas chromatograph 7890B equipped with a mass selective detector (5977B), a Chemstation quantitation package and a Gerstel multi-purpose sampler equipped with a solid phase micro-extraction (SPME) probe. […] Based on the partition coefficients (K at 80 C) of each component, the total nMol/L liter of 6-Methyl-5-hepten-2-one (K=3353), Trans-2-heptenal (K=3434), and 3-methyl-2-Butenal (K=1119) are calculated. […]

Cc1c(C)c2c(c(C)c1O)CCC(C)(C(=O)O)O2 (stereo not shown) [Antioxidant 7, 3,4-dihydro-6-hydroxy-2,5,7,8-tetramethyl-2H-1-Benzopyran-2-carboxylic acid]
malodor reduction benefits (reduction in total oxidation markers): did not provide benefits
